Results as given in patent US20150094328A1, “4-Azaindole Derivatives” (Eisai R&D Management Co., Ltd., priority 2013, published 2015).

Test system: male Crlj: WI rats
Test: Morris water maze test in ibotenic acid-induced learning disability model
Type: in vivo, rat
Experimental: Ibotenic acid at 5 μg/0.5 μL was injected into both basal nuclei of 8-week old male Crlj: WI rats, and a Morris water maze test was performed 10-14 days after ibotenic acid injection. It has been reported that rats in which basal forebrain was lesioned by ibotenic acid injection show learning disability in the Morris water maze test. (Pharmacopsychiat, 1999, 32, 242-247). The test is considered a model of spatial learning and memory.
Learning trials were performed twice a day at an interval of 3 hours for 4 days (8 times in total), and probe trials were performed once the day after completion of the learning trials. Each test compound was dissolved in a 0.5% methylcellulose in water and orally administered 1 hour before the first trial on each day of the learning trials and 1 hour before the trial on the day of the probe trials. […]
In learning trials, the animal was put into water and goal latency and swimming distance to reach the platform were measured (measurement time: 90 seconds at the longest) by a video image behavioral analysis device (Etho Vision XT, Noldus Information Technology Inc.). […]
In probe trials, the platform was removed from the pool. The animal was put into water, and the swimming time in the quadrant where the platform had been located in the learning trials and the frequency of entry into the platform area where the platform had been located in the learning trials were measured by Etho Vision XT.
Each value was shown as an average and a standard error (n=10). The statistical significance between a control group and a vehicle group was analyzed by the independent t-test. The statistical significance between the vehicle group and each sample group was analyzed by one-way analysis of variance and then by Dunnett's multiple comparison test. […]

Measured: Goal latency [mean ± SEM]

O=C(N[C@H]1CCCC[C@@H]1O)c1cn(Cc2ccc(F)cc2)c2cccnc12 [Example 5, 1-(4-Fluorobenzyl)-N-((1S,2S)-2-hydroxycyclohexyl)-1H-pyrrolo[3,2-b]pyridine-3-carboxamide]
[90 ± 0.00] sec.: Trial 1, 0.1 mg/kg p.o. | Trial 1, 0.3 mg/kg p.o. | Trial 2, 0.1 mg/kg p.o.
